# Results from patent US9132177B2, “Composition of tumor-associated peptides and related anti-cancer vaccine for the treatment of gastric cancer and other cancers” (priority 2010, dated 2015).
# Test system: CD8+ T cells
# Test: In vitro priming of CD8+ T cells with pMHC/anti-CD28 coated beads, multimer staining readout
# Assay type: cell-based, human
# Settings: HLA-A*24 healthy donors, three stimulations, A*2402 multimer+ CD8+
# Text: In order to perform in vitro stimulations by artificial antigen presenting cells (aAPC) loaded with peptide-MHC complex (pMHC) and anti-CD28 antibody, we first isolated CD8 T cells from fresh HLA-A*24 leukapheresis products of healthy donors obtained from the Blood Bank Tuebingen.
# CD8 T cells were either directly enriched from the leukapheresis product or PBMCs (peripheral blood mononuclear cells) were isolated first by using standard gradient separation medium (PAA, Cölbe, Germany). Isolated CD8 lymphocytes or PBMCs were incubated until use in T-cell medium (TCM) consisting of RPMI-Glutamax (Invitrogen, Karlsruhe, Germany) supplemented with 10% heat inactivated human AB serum (PAN-Biotech, Aidenbach, Germany), 100 U/ml Penicillin/100 μg/ml Streptomycin (Cambrex, Cologne, Germany), 1 mM sodium pyruvate (CC Pro, Oberdorla, Germany), 20 μg/ml Gentamycin (Cambrex). […] Isolation of CD8+ lymphocytes was performed by positive selection using CD8 MicroBeads (Miltenyi Biotec, Bergisch-Gladbach, Germany).
# 800.000 beads/200 μl were coated in 96-well plates in the presence of 600 ng biotin anti-CD28 plus 200 ng relevant biotin-pMHC (high density beads). Stimulations were initiated in 96-well plates by co-incubating 1×10^6 CD8+ T cells with 2×10^5 washed coated beads in 200 μl TCM supplemented with 5 ng/ml IL-12 (PromoCell) for 3-4 days at 37° C. Half of the medium was then exchanged by fresh TCM supplemented with 80 U/ml IL-2 and incubating was continued for 3-4 days at 37° C. This stimulation cycle was performed for a total of three times. […] For analysis, a BD LSRII SORP cytometer equipped with appropriate lasers and filters was used. Peptide specific cells were calculated as percentage of total CD8+ cells. Evaluation of multimeric analysis was done using the FlowJo software (Tree Star, Oregon, USA). In vitro priming of specific multimer+ CD8+ lymphocytes was detected by appropriate gating and by comparing to negative control stimulations.
Sequence,Positive donors/donors tested [%],Positive wells/wells tested [%]
AYLVYTDRL (listed as Homo sapiens) [PPAP2C-001],100%,54%
FYISPVNKL (listed as Homo sapiens) [AVL9-001],100%,50%
HYKPTPLYF (listed as Homo sapiens) [SMC4-001],75%,9%
LYQILQGIVF (listed as Homo sapiens) [CDC2-001],88%,28%
NYLLYVSNF (listed as Homo sapiens) [MST1R-001],50%,14%
NYLPFIMEL (listed as Homo sapiens) [UCHL5-001],75%,14%
RFLSGIINF (listed as Homo sapiens) [NUF2-002],50%,4%
SYIDVLPEF (listed as Homo sapiens) [MET-006],63%,22%
SYIIDPLNL (listed as Homo sapiens) [PROM1-001],83%,26%
SYNPLWLRI (listed as Homo sapiens) [ASPM-002],63%,31%
TYGNLLDYL (listed as Homo sapiens) [ABL1-001],50%,13%
VWSDVTPLTF (listed as Homo sapiens) [MMP11-001],33%,11%
VYGIRLEHF (listed as Homo sapiens) [NUF2-001],100%,25%
VYIEKNDKL (listed as Homo sapiens) [ERBB3-001],83%,15%
YYNAAGFNKL (listed as Homo sapiens) [UQCRB-001],100%,38%

# Test system: HLA-DR broad antigens (HLA-DR1 to DR7)
# Test: ProImmune REVEAL MHC:peptide in vitro binding assay
# Parameters: species or system human
# Settings: HLA-DR1, 3, 4 and 11; result in words
# Protocol: The ProImmune REVEAL™ technology employs in vitro HLA-DR assembly assays to determine the on-rates for the MHC:peptide complex as one major determinant of the binding constant of individual peptides. The assay was performed by ProImmune (Oxford, UK). At a fixed time point, the amount of intact MHC:peptide complexes is measured and compared with the amount for a pass/fail control (relative weak binder). A strong, promiscuous HLA-DR binder is included as positive control. Values indicate amount of binding for the individual peptides and HLA-DR molecules relative to the pass/fail control.
# In this assay, binding was compared to that of a pass/fail control binder, and to a positive control peptide for each HLA-DR antigen.
row,Sequence,in vitro binding to HLA-DR
1,TLGEFLKLDRERAKN (listed as Homo sapiens) [IMA-BIR-002],promiscuous binding

# Test system: anti-survivin T-cell response
# Test: Phase I/II vaccination study, T cell response (IFN-g ELISPOT, +/-ICS)
# Assay type: in vivo, human
# Settings: among the 16 reacting patients
row,Sequence,patients with induction of an anti-survivin T-cell response upon vaccination
1,TLGEFLKLDRERAKN (listed as Homo sapiens) [IMA-BIR-002],12

# Same assay, conditions: of the 19 patients, prostate carcinoma, s.c. vaccination
row,Sequence,"patients who reacted to the peptide (IFN-g ELISPOT, +/-ICS)"
1,TLGEFLKLDRERAKN (listed as Homo sapiens) [IMA-BIR-002],16
